In data set [1] the test system is transgenic double tg mice (APPswe, PSEN1 dE9). Put plainly: In vivo fear conditioning test in transgenic mice. To be noted: for Increase rate (fold) of freezing: 5 to 12 months of age, based on the freezing (%) of Tg vehicle group. The method, then: The tails of 3-week old mice born from Male B6C3-Tg (APPswe, PSEN1 dE9, Jackson Laboratory Co., Maine, A) and female B6C3F1 (central Lab. Animal Inc., Korea) were cut in lengths of about 0.5 cm (tail biopsy). The genomic DNAs were extracted from the tail samples and subjected to a genotype analysis to screen transgenic double tg mice.
From 5 months to 12 months after the birth, the mice were administered orally with the compound of Example 9, in an amount of 30 mg/kg or 100 mg/kg every day. As a comparative compound, tramiprosate (Aisen, P. S. et. al., Curr. Alzheimer Res. 2007, 4, 473) was used, which binds to beta-amyloid protein to inhibit the deposition and cytotoxicity to the protein. The compounds were administrated.
3) Fear Conditioning Test
At the First day of training, the mice were placed in a conditioning box and adjusted for 2 min. The fear conditioning was performed with a conditional stimulus (CS) of 75 dB for 20 sec, together with an electrical stimulus (unconditional stimulus (US)) of 0.5 mA for final 2 sec in the conditional stimulus period. After 1 min, the animals were transferred to a cage. After 24 hrs, the retention test was performed. The animals were placed in the same conditioning box as used above and observed for 5 min. The freezing response was measured without CS and US. The freezing response is defined in the state of the animals keeping still except for breathing.

Data set [2] addresses beta-amyloid 42 (Homo sapiens, UniProt P05067). Put plainly: Biochemical test: content of beta-amyloid 42 in hippocampus tissue of transgenic mice. It counts as in vivo. To be noted: for Reduction rate (%) of beta amyloid 42 content: hippocampus tissue, based on the content of beta amyloid 42 in the Tg group.
Data set [3] has as its target T1, beta-amyloid 42 (Aβ42) (Homo sapiens, UniProt P05067).
T1 construct: Beta-amyloid 42 (Aβ42) was dissolved in dimethylsulfoxide (DMSO)
Nature of the data set: Inhibitory effect on the formation of beta-amyloid fibrils in vitro (ThT fluorescence assay). It is filed as biochemical. The settings on record: for inhibition at 10 µM: 10 μM compound, Aβ42 25 μM, read-out: % Inhibition (10 μM); for IC50: In vitro ThT analysis (Aβ42: 25 μM); for % inhibition against the beta-amyloid 42 formation compared with curcumin: Tables 1 to 6, relative to curcumin.

Data set [4] deals with congo red-positive beta-amyloid plagues. Nature of the data set: Immunohistochemistry: congo red-positive beta-amyloid plaque count in hippocampus and cortex of transgenic mice. It counts as in vivo. The settings on record: for Reduction rate (%) of beta-amyloid plaques, cortex / Reduction rate (%) of beta-amyloid plaques, hippocampus / Total reduction rate (%) of beta-amyloid plaques: vs Tg group. The method, then: The transgenic mice were screened and drug was administered thereto as described in 1) and 2) of Experimental Example 4. The brain was separated from the transgenic mouse and fixed in 10% neutral formalin solution. A region of the brain including the hippocampus and the cortex were subjected to removal, washing, dehydration and paraffin infiltration to obtain paraffin block including the brain tissue. The paraffin block was subjected to thin section in thickness of 8 μm to obtain the sections of all regions of hippocampus. Among them, 10 sections were elected at regular intervals. They were deparaffinized, hydrated, immersed in Mayer's hematoxylin for 1 min and rinsed with tap water. The rinsed tissue was reacted in an alkaline sodium chloride solution for 20 min, after then was reacted in an alkaline congo red solution for 20 min. The resulting tissue was washed with 100% ethyl alcohol, cleared with xylene and mounted using a synthetic mounting medium. In the hippocampus and cortex regions of the tissue preparations strained with congo red, congo red-positive beta-amyloid plagues were counted.

Consider 2 compounds from patent US20110124888A1, “STYRYLBENZOFURAN DERIVATIVES AS INHIBITORS FOR BETA-AMYLOID FIBRIL FORMATION AND PREPARATION METHOD THEREOF” (Korea Institute of Science and Technology, priority 2008, published 2011).

T1 sequence (P05067 672-713 limits assumed): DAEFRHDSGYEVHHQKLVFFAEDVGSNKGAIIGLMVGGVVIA
beta-amyloid 42, sequence (P05067 672-713 limits assumed): as above

The term inhibition denotes the drop in the measured response relative to a control, in per cent. For orientation: IC50 means the point on the concentration scale where inhibition reaches its midpoint. A low value points to greater potency in that assay. Turning to `COc1ccc2cc(C=Cc3ccc(N(C)C)cc3)oc2c1` [Compound 9, 6-methoxy-2-(4-dimethylaminostyryl)benzofuran], the “Increase rate (fold) of freezing” value was 3.2 fold in data set [1] (30 mg/kg orally every day) and 3.8 fold in data set [1] (100 mg/kg orally every day). For the same compound, the “degree of memory compared with tramiprosate (in words)” value in data set [1] (30 and 100 mg/kg) is “much higher degree of memory in a dose-dependent manner”. Besides, the figures for the “Reduction rate (%) of beta amyloid 42 content” value in data set [2] (30 mg/kg) and in data set [2] (100 mg/kg) were 41% and 48%, respectively. In addition, the “reduction rate of beta-amyloid plague compared with tramiprosate (in words)” value in data set [2] (Table 13, 30 and 100 mg/kg) is given as “remarkable reduction rate of beta-amyloid plague in a dose-dependent manner”. Also, in data set [3] (experiment of Table 7), the inhibition at 10 µM was found to be 78.7%. Moreover, the IC50 was determined as 70 nM in data set [3] (experiment of Table 1) and 972 nM in data set [3] (experiment of Table 7). In data set [3], the “% inhibition against the beta-amyloid 42 formation compared with curcumin” value is listed as “superior % inhibition”. The entries for the “Reduction rate (%) of beta-amyloid plaques, cortex” value in data set [4] (30 mg/kg) and in data set [4] (100 mg/kg) were 43% and 61%, respectively. The “Reduction rate (%) of beta-amyloid plaques, hippocampus” value in data set [4] (30 mg/kg) is recorded as 29%; in data set [4] (100 mg/kg) it was 64%. Further, the “Total reduction rate (%) of beta-amyloid plaques” value in data set [4] (30 mg/kg) stood at 41%; in data set [4] (100 mg/kg), 61%. Also, in data set [4] (FIGS. 1 and 2), the “beta-amyloid deposition in stained hippocampus and cortex tissues compared with tramiprosate (in words)” value was “remarkably reduced beta-amyloid deposition”. Moreover, the “reduction rate of beta-amyloid deposition compared with tramiprosate (in words)” value in data set [4] (Table 12, 30 and 100 mg/kg) is “remarkable reduction rate of beta-amyloid deposition in a dose-dependent manner”.
One may read the melting point as the temperature of the solid-liquid transition. For `CNc1ccc(C=Cc2cc3cc(OC)ccc3o2)cc1` [Compound 17, 5-methoxy-2-(4-methylaminostyryl)benzofuran], the melting point fell in the range of 174 to 175 °C. Moreover, in data set [3] (experiment of Table 7), the inhibition at 10 µM was 74.6% and half-maximal inhibition (IC50) required 725 nM. Also, the IC50 in data set [3] (experiment of Table 1) stood at 78 nM. The “% inhibition against the beta-amyloid 42 formation compared with curcumin” value in data set [3] is on record as “superior % inhibition”.
